Measured values published in patent publication US8426409B2, “Inhibitors of Bruton's tyrosine kinase” (Roche Palo Alto LLC, priority 2008, dated 2013).

Target: T1, Btk enzyme (His-tagged, full-length) (Homo sapiens, UniProt Q06187)
T1 construct: 5-10 nM Btk enzyme (His-tagged, full-length); His
Assay: Bruton's Tyrosine Kinase (Btk) Inhibition Assay (33P filtration capture)
Assay type: biochemical
Details: 100 μM ATP, 30 μM biotinylated peptide substrate, 30 min at 30° C.
Text: The assay is a capture of radioactive ^33P phosphorylated product through filtration. The interactions of Btk, biotinylated SH2 peptide substrate (Src homology), and ATP lead to phosphorylation of the peptide substrate. Biotinylated product is bound streptavidin sepharose beads. All bound, radiolabeled products are detected by scintillation counter.
Plates assayed are 96-well polypropylene (Greiner) and 96-well 1.2 μm hydrophilic PVDF filter plates (Millipore). Concentrations reported here are final assay concentrations: 10-100 μM compounds in DMSO (Burdick and Jackson), 5-10 nM Btk enzyme (His-tagged, full-length), 30 μM peptide substrate (Biotin-Aca-AAAEEIYGEI-NH2), 100 μM ATP (Sigma), 8 mM imidazole (Sigma, pH 7.2), 8 mM glycerol-2-phosphate (Sigma), 200 μM EGTA (Roche Diagnostics), 1 mM MnCl2 (Sigma), 20 mM MgCl2 (Sigma), 0.1 mg/ml BSA (Sigma), 2 mM DTT (Sigma), 1 μCi ^33P ATP (Amersham), 20% streptavidin sepharose beads (Amersham), 50 mM EDTA (Gibco), 2 M NaCl (Gibco), 2 M NaCl w/1% phosphoric acid (Gibco), microscint-20 (Perkin Elmer).
IC50 determinations are calculated from 10 data points per compound utilizing data produced from a standard 96-well plate assay template. […] Background was counted in the absence of peptide substrate. Total activity was determined in the presence of peptide substrate. […]

T1 sequence (Q06187 whole entry): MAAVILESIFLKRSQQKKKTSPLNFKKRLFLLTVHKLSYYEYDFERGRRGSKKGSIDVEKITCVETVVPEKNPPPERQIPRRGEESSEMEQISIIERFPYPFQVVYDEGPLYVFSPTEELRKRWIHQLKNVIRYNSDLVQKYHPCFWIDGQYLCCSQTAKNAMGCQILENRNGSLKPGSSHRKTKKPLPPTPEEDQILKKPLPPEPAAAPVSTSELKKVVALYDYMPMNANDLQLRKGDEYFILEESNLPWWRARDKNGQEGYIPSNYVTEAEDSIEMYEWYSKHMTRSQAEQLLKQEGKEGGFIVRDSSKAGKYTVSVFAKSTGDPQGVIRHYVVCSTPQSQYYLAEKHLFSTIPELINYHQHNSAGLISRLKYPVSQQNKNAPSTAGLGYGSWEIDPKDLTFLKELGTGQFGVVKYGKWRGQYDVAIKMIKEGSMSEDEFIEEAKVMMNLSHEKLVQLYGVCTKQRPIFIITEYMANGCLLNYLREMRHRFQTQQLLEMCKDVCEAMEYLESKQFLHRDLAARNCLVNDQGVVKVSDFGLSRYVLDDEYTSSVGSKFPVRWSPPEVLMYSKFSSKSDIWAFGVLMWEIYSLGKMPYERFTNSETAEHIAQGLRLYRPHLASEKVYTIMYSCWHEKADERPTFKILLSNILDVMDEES

IC50 [nM] | SMILES
25 | O=C(c1ccc(Nc2nc(-c3cccc(N4CCc5cc(C6CC6)ccc5C4=O)c3CO)cn3ccnc23)cc1)N1CCOCC1 [II-1, 6-Cyclopropyl-2-(2-hydroxymethyl-3-{8-[4-(morpholine-4-carbonyl)-phenylamino]-imidazo[1,2-a]pyrazin-6-yl}-phenyl)-3,4-dihydro-2H-isoquinolin-1-one]
37 | O=C1c2ccc(C3CC3)cc2CCN1c1cccc(-c2cn3ccnc3c(Nc3ccc(CN4CCOCC4)cc3)n2)c1CO [II-2, 6-Cyclopropyl-2-{2-hydroxymethyl-3-[8-(4-morpholin-4-ylmethyl-phenylamino)-imidazo[1,2-a]pyrazin-6-yl]-phenyl}-3,4-dihydro-2H-isoquinolin-1-one]
